Calls of active or inactive are those of the source. The rule behind the calls is not given here.
Legend:
[1] = target: T1, Replicase polyprotein 1ab (Severe acute respiratory syndrome coronavirus 2, UniProt P0DTD1); assay: Inhibition of full-length SARS CoV-2 MPro expressed in Escherichia coli BL21(DE3) using Boc-Abu-Tle-Leu-Gln-AMC as substrate incubated for 10 mins by fluorescence based assay
[2] = Stability of compound in 1 mM GSH at 100 uM incubated for 1 hr by HPLC-ESI-MS analysis; format: ADME
[3] = test system: Severe acute respiratory syndrome-related coronavirus; assay: Inhibition of SARS CoV-1 MPro using Boc-Abu-Tle-Leu-Gln-AMC as substrate incubated for 10 mins by fluorescence based assay
[4] = Stability of compound in 1 mM GSH assessed as compound remaining at 10 to 100 uM incubated for 1 hr by HPLC-ESI-MS analysis; format: ADME; details: 1 mM GSH solution, dose 10-100 µM, read-out: Stability
[5] = (§1) Cytotoxicity against human Calu-3 cells; format: toxicity, cell-based; details: Calu-3 cells
[6] = test system: Calu-3; assay: as §1; format: toxicity, cell-based; details: calu-3, 10 µM, dose 10 µM
[7] = test system: SARS-CoV-2; assay: microbe, parasite or virus in culture; details: Severe acute respiratory syndrome coronavirus 2, Calu-3
[8] = target: Replicase polyprotein 1ab (Severe acute respiratory syndrome coronavirus 2) (UniProt P0DTD1); assay: Inhibition of His-tagged recombinant SARS CoV-2 MPro expressed in Escherichia coli BL21(DE3) using Boc-Abu-Tle-Leu-Gln-AMC as substrate at 1 uM incubated for shorter period by fluorescence based assay relative to control
[9] = target: T1, Replicase polyprotein 1ab; assay: Inhibition of SARS CoV-2 MPro
[10] = target: Replicase polyprotein 1ab (Severe acute respiratory syndrome coronavirus 2) (UniProt P0DTD1); assay: Inhibition of His-tagged recombinant SARS CoV-2 MPro expressed in Escherichia coli BL21(DE3) using Boc-Abu-Tle-Leu-Gln-AMC as substrate at 1 uM incubated for >6 hrs by fluorescence based assay relative to control
[11] = test system: Calu-3; assay: Cytotoxicity against human Calu-3 cells at 10 uM; format: toxicity, cell-based; details: calu-3, 10 µM
[12] = target: Replicase polyprotein 1ab (Severe acute respiratory syndrome coronavirus 2) (UniProt P0DTD1); assay: Inhibition of full-length SARS CoV-2 MPro expressed in Escherichia coli BL21(DE3) using Boc-Abu-Tle-Leu-Gln-AMC as substrate at 1 uM incubated for 10 mins by fluorescence based assay relative to control
[13] = Stability of compound in 1 mM GSH at 10 uM incubated for 1 hr by HPLC-ESI-MS analysis; format: ADME
[14] = Stability of compound in 1 mM GSH assessed as compound remaining at 100 uM incubated for 1 hr by HPLC-ESI-MS analysis; format: ADME; details: 1 mM GSH solution, read-out: Stability
[15] = Inhibition of MERS CoV MPro using Boc-Abu-Tle-Leu-Gln-AMC as substrate incubated for 10 mins by fluorescence based assay; set-up: species or system Middle East respiratory syndrome-related coronavirus

## COc1cccc(C(=O)Oc2cncc(Br)c2)c1
[1]
  IC50: 19.9 nM

## O=C(Oc1cncc(Cl)c1)c1ccc(-c2cccnc2)cc1
[1]
  IC50: 137 nM

## COc1ccc(C(=O)Oc2cncc(Cl)c2)c(OC)c1
[1]
  IC50: 1670 nM
[2]
  Stability: Stable

## O=C(Oc1cncc(Cl)c1)c1ccccc1Cl
[1]
  IC50: 60.4 nM

## COc1c(Cl)ccc(C(=O)Oc2cncc(Cl)c2)c1F
[1]
  IC50: 70.7 nM

## O=C(Oc1cncc(Cl)c1)c1ccc(-c2ccccc2)cc1
[1]
  IC50: 150 nM
[3]
  inhibition: inactive
[2]
  Stability: Stable
[4]
  remaining at 1 h, up to 100 µM: 50%
[5]
  CC50: 14700 nM
[6]
  Activity: Dose-Dependent Effect
[7]
  EC50: 58.7 nM

## O=C(Oc1cncc(Br)c1)c1ccc(Cl)cc1F
[1]
  IC50: 35.6 nM
[8]
  inhibition: 100%

## COc1cc(F)ccc1C(=O)Oc1cncc(Cl)c1
[1]
  IC50: 249 nM

## O=C(Oc1cncc(Cl)c1)c1cccs1
[9]
  Ki: 81.1 nM

## O=C(Oc1cncc(Cl)c1)c1ccc(Br)cc1F
[1]
  IC50: 34.9 nM
[3]
  inhibition: inactive

## O=C(Oc1cncc(Br)c1)c1ccccc1
[1]
  IC50: 40.5 nM

## O=C(Oc1cncc(Br)c1)c1ccc(Cl)cc1
[1]
  IC50: 95.7 nM

## O=C(Oc1cncc(Cl)c1)c1ccc(F)cc1
[1]
  IC50: 119 nM

## O=C(Oc1cncc(Br)c1)c1ccc(I)cc1F
[1]
  IC50: 33.5 nM
[2]
  Stability: Stable

## O=C(Oc1cncc(Cl)c1)c1cc(Cl)cc(Cl)c1
[1]
  IC50: 133 nM

## O=C(Oc1cncc(Br)c1)c1cccc(Cl)c1
[1]
  IC50: 50.5 nM

## O=C(Oc1cncc(Cl)c1)c1ccc(I)cc1F
[1]
  IC50: 14.9 nM
[3]
  inhibition: inactive

## O=C(Oc1cncc(Cl)c1)c1ccncc1
[1]
  IC50: 725 nM

## O=C(Oc1cncc(Cl)c1)c1cccc(Cl)c1Cl
[1]
  IC50: 126 nM
[3]
  inhibition: Active

## O=C(Oc1cncc(Cl)c1)c1ccc(Cl)cc1Cl
[1]
  IC50: 108 nM
[8]
  inhibition: 100%
[3]
  inhibition: Active

## CCOc1ccc(C(=O)Oc2cncc(Cl)c2)c(F)c1
[1]
  IC50: 47.4 nM
[10]
  inhibition: 100%
[3]
  inhibition: inactive
[11]
  Activity: Non-Toxic
[7]
  EC50: 2.68 nM

## COc1ccccc1C(=O)Oc1cncc(Cl)c1
[1]
  IC50: 264 nM
[3]
  inhibition: inactive

## N=C(N)Nc1ccc(C(=O)Oc2cncc(Cl)c2)cc1
[1]
  IC50: 65.9 nM

## O=C(Oc1cncc(Br)c1)c1ccccc1Cl
[1]
  IC50: 39.2 nM

## N#Cc1ccc(C(=O)Oc2cncc(Cl)c2)c(F)c1
[1]
  IC50: 47 nM

## O=C(Oc1cncc(Cl)c1)c1ccc(Cl)cc1
[1]
  IC50: 218 nM

## O=C(Oc1cncc(Cl)c1)c1ccccc1-c1ccccc1
[1]
  IC50: > 1000 nM
[12]
  inhibition: 6%
[2]
  Stability: Stable
[13]
  Stability: Unstable

## O=C(Oc1cncc(Br)c1)c1ccccc1F
[1]
  IC50: 10.7 nM

## O=C(Oc1cncc(Cl)c1)c1c(F)cccc1F
[1]
  IC50: 29.2 nM
[3]
  inhibition: inactive

## O=C(Oc1cncc(Cl)c1)c1cccc(F)c1
[1]
  IC50: 46.4 nM

## O=C(Oc1cncc(Cl)c1)c1cccc(-c2ccccc2)c1
[1]
  IC50: 117 nM
[2]
  Stability: Stable
[13]
  Stability: Unstable

## CCOc1ccc(C(=O)Oc2cncc(Cl)c2)cc1
[1]
  IC50: 329 nM
[4]
  remaining at 1 h, up to 100 µM: 50%

## O=C(Oc1cncc(Cl)c1)c1ccccc1F
[1]
  IC50: 25.9 nM
[3]
  inhibition: Active

## O=C(Oc1cncc(Cl)c1)c1ccc(Cl)cc1F
[1]
  IC50: 45.7 nM
[8]
  inhibition: 100%
[3]
  inhibition: inactive

## CC(C)(C)[C@H](NC(=O)C(F)(F)F)C(=O)N1C[C@H]2[C@@H]([C@H]1C(=O)N[C@H](C#N)C[C@@H]1CCNC1=O)C2(C)C
[2]
  Stability: Stable
[13]
  Stability: Stable

## O=C(Oc1cncc(Br)c1)c1ccc(Cl)c(Cl)c1
[1]
  IC50: 37.5 nM

## O=C(Oc1cncc(Br)c1)c1ccc(OCc2ccccc2)cc1F
[1]
  IC50: 232 nM
[10]
  inhibition: 100%

## O=C(Oc1cncc(Cl)c1)c1ccc(Cl)c(Cl)c1
[1]
  IC50: 96.4 nM
[3]
  inhibition: Active

## COc1ccc(C(=O)Oc2cncc(Cl)c2)cc1Cl
[1]
  IC50: 247 nM
[2]
  Stability: Stable
[13]
  Stability: Unstable

## COc1ccc(C(=O)Oc2cncc(Cl)c2)cc1
[1]
  IC50: 164 nM
[10]
  inhibition: 100%
[3]
  inhibition: inactive
[2]
  Stability: Stable
[4]
  remaining at 1 h, up to 100 µM: 50%
[11]
  Activity: Non-Toxic
[7]
  EC50: 10.8 nM

## Nc1ccc(C(=O)Oc2cncc(Cl)c2)c(F)c1
[1]
  IC50: 943 nM
[2]
  Stability: Stable

## CCOc1ccc(C(=O)Oc2cncc(Br)c2)c(F)c1
[1]
  IC50: 107 nM
[10]
  inhibition: 100%
[13]
  Stability: Unstable

## COc1ccc(C(=O)Oc2cncc(Br)c2)cc1
[1]
  IC50: 96.3 nM
[10]
  inhibition: 100%
[2]
  Stability: Stable
[11]
  Activity: Non-Toxic
[7]
  EC50: 1860 nM

## O=C(Oc1cncc(Cl)c1)c1cc2cc(Cl)ccc2[nH]1
[14]
  remaining at 1 h, 100 µM: > 70%
[13]
  Stability: Unstable

## COc1cccc(C(=O)Oc2cncc(Cl)c2)c1OC
[1]
  IC50: 84.5 nM
[10]
  inhibition: 100%
[3]
  inhibition: Active

## COc1cccc(C(=O)Oc2cncc(Br)c2)c1OC
[1]
  IC50: 78.2 nM
[10]
  inhibition: 100%

## O=C(Oc1cncc(Br)c1)c1ccc(Cl)cc1Cl
[1]
  IC50: 84.5 nM
[8]
  inhibition: 100%

## O=C(Oc1cncc(Cl)c1)c1ccc(I)cc1
[1]
  IC50: 91.2 nM
[3]
  inhibition: inactive
[13]
  Stability: Unstable

## O=C(Oc1cncc(Cl)c1)c1cccnc1
[1]
  IC50: 758 nM

## CCCCCCCOc1ccc(C(=O)Oc2cncc(Cl)c2)cc1
[1]
  IC50: > 1000 nM
[12]
  inhibition: 8%
[2]
  Stability: Stable
[4]
  remaining at 1 h, up to 100 µM: 50%

## COc1ccc(F)c(C(=O)Oc2cncc(Cl)c2)c1F
[1]
  IC50: 30.3 nM

## O=C(Oc1cncc(Cl)c1)c1cccc(Cl)c1
[1]
  IC50: 55.1 nM

## O=C(Oc1cncc(Cl)c1)c1ccccc1
[1]
  IC50: 40.4 nM

## Cc1cc(Cl)ccc1C(=O)Oc1cncc(Cl)c1
[1]
  IC50: 3400 nM

## COc1cccc(C(=O)Oc2cncc(Cl)c2)c1
[1]
  IC50: 5.13 nM
[3]
  inhibition: Active
[15]
  IC50: 112 nM
[13]
  Stability: Unstable

## O=C(Oc1cncc(Cl)c1)c1ccc(OCc2ccccc2)cc1F
[1]
  IC50: 322 nM
[10]
  inhibition: 100%
[3]
  inhibition: inactive
[2]
  Stability: Stable
[13]
  Stability: Unstable

## CNc1ccc(C(=O)Oc2cncc(Cl)c2)cc1
[1]
  IC50: 3940 nM
[2]
  Stability: Stable
[4]
  remaining at 1 h, up to 100 µM: 50%

## O=C(Oc1cncc(Cl)c1)c1cc(F)cc(F)c1
[1]
  IC50: 38.3 nM

## O=C(Oc1cncc(Cl)c1)c1cccc2[nH]ccc12
[14]
  remaining at 1 h, 100 µM: > 70%
[13]
  Stability: Stable

— ChEMBL document CHEMBL5584322, “Nonpeptidic Irreversible Inhibitors of SARS-CoV-2 Main Protease with Potent Antiviral Activity” (J Med Chem, 2024)
